According to patent US20170360947A1, “POLYMER PARTICLES AND BIOMATERIALS COMPRISING THE SAME” (UNIVERSITE DE BORDEAUX, priority 2014, published 2017):
≈ marks a conversion by molar mass, not a printed value.

Columns and labels:
[1] = system: MRSA BCB8; assay: MIC determination in Mueller-Hinton broth (absorbance at 600 nm); assay type: cell-based, S. aureus
Description: From a 24 h bacterial culture, MRSA BCB8 were suspended in Mueller-Hinton broth to obtain a 0.5 McF suspension, which was diluted to a final concentration of 1.10^6 CFU·ml^−1.
Then twofold serial dilutions of chemicals were prepared (from 256 μg·ml^−1 to 0.06 μg·ml^−1) and 100 μl of MRSA BCB8 suspension were incubated with 200 μl of chemical containing solutions for 24 h at 37° C.
After this time, suspension absorbances were measured at 600 nm. MICs were determined as the minimal concentration for which the lowest absorbance is observed.

[2] = system: MRSA strain obtained from blood cultures; assay: Gentamicin susceptibility of the MRSA strain studied in vivo; assay type: cell-based, S. aureus
Description: Strain studied: an MRSA strain obtained from blood cultures (gentamicin MIC<0.5 μg/mL). Assessment of the animal model was realized with 10^3 CFU/mL inoculum.

`CN[C@H](CC(C)C)C(=O)N[C@H]1C(=O)N[C@@H](CC(N)=O)C(=O)N[C@H]2C(=O)N[C@H]3C(=O)N[C@H](C(=O)N[C@H](C(=O)O)c4cc(O)cc(O)c4-c4cc3ccc4O)[C@H](O)c3ccc(c(Cl)c3)Oc3cc2cc(c3O[C@@H]2O[C@H](CO)[C@@H](O)[C@H](O)[C@H]2O[C@H]2C[C@](C)(N)[C@H](O)[C@H](C)O2)Oc2ccc(cc2Cl)[C@H]1O` [Vancomycin] showed an MIC ([1]; Staphylococcus aureus, MRSA, 24 h) of 0.6 µg/mL (≈ 0.414 µM).

With gentamicin the “gentamicin MIC” value [2] was < 0.5 µg/mL.

“α-Norbornenyl-ω-Vancomycin Poly(Ethylene Oxide) [macro Vanco]” gave an MIC ([1]; MRSA BCB8, 24 h at 37° C., lowest absorbance at 600 nm) of 1.3 µg/mL.
